Laboratory results from ChEMBL document CHEMBL4052755, “Phosphonodifluoropyruvate is a mechanism-based inhibitor of phosphonopyruvate decarboxylase from Bacteroides fragilis” (Bioorg Med Chem, 2017).
Calls of active or inactive are those of the source. The rule behind the calls is not given here.

Experiments:
[1] = test system: Bacteroides fragilis; test: Inhibition of recombinant Bacteroides fragilis phosphonopyruvate decarboxylase at 35 uM incubated for 3 mins by UV-Vis spectrophotometric analysis
[2] = test system: Bacteroides fragilis; test: Irreversible inhibition of recombinant Bacteroides fragilis phosphonopyruvate decarboxylase at 10 to 50 uM using phosphonopyruvate as substrate
[3] = test system: Bacteroides fragilis; test: Inhibition of recombinant Bacteroides fragilis phosphonopyruvate decarboxylase at 35 uM incubated for 3 mins by CD spectropolarimetric analysis
[4] = test system: Bacteroides fragilis; test: Inhibition of recombinant Bacteroides fragilis phosphonopyruvate decarboxylase assessed as fluoride ion release up to 75 uM incubated for 30 mins by TISAB 2 solution based ion-selective electrode assay
[5] = Binding affinity to recombinant Bacteroides fragilis phosphonopyruvate decarboxylase using phosphonopyruvate as substrate
[6] = test system: Pseudomonas putida; test: Inhibition of recombinant Pseudomonas putida C-terminal His-tagged phosphonatase
[7] = test system: Bacteroides fragilis; test: Irreversible inhibition of recombinant Bacteroides fragilis phosphonopyruvate decarboxylase at 10 uM using phosphonopyruvate as substrate after overnight dialysis
[8] = test system: Saccharomyces cerevisiae; test: Inhibition of yeast alcohol dehydrogenase

**Q.** With `O=C(O)C(O)(O)C(F)(F)P(=O)(O)O` as the compound, how does the inhibition [1] read?
**A.** Active

**Q.** What about the TDI [2] of the same compound?
**A.** Active

**Q.** What about the inhibition [3] of the same compound?
**A.** Active

**Q.** And the inhibition [4]?
**A.** Active

**Q.** What about the Ki [5] of the same compound?
**A.** 600 nM

**Q.** What about the inhibition [6] of the same compound?
**A.** inactive

**Q.** What about the inhibition [7] of the same compound?
**A.** Active

**Q.** And the inhibition [8]?
**A.** inactive
